Assay results as given in PubChem BioAssay (NCI).
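Cells were grown in 96-well plates and exposed to each compound for 48 hours at five concentrations; endpoints were interpolated linearly between bracketing concentrations, or set to the highest concentration if not reached. Here, GI50 denotes the concentration required for 50% inhibition of growth. Definition used: TGI = concentration required for complete inhibition of growth.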

Legend:
Assay in all cases: NCI anticancer screen, dose series, 48 h
[1] = test system: A549 NSCLC
[2] = test system: DU-145 prostate
[3] = test system: EKVX NSCLC
[4] = test system: HCT-15 colon
[5] = test system: KM12 colon
[6] = test system: LOX IMVI melanoma
[7] = test system: MDA-MB-231 breast
[8] = test system: OVCAR-3 ovarian
[9] = test system: SK-MEL-5 melanoma
[10] = test system: IGROV1 ovarian

SMILES | GI50 [1] [µM] | TGI [1] [µM] | GI50 [2] [nM] | TGI [2] [µM] | GI50 [3] [nM] | TGI [3] [µM] | GI50 [4] [nM] | TGI [4] [µM] | GI50 [5] [µM] | TGI [5] [µM] | GI50 [6] [nM] | TGI [6] [µM] | GI50 [7] [nM] | TGI [7] [µM] | GI50 [8] [nM] | TGI [8] [µM] | GI50 [9] [nM] | TGI [9] [µM] | GI50 [10] [nM] | TGI [10] [µM]
CCNCCNc1cc(-c2ccc(C(F)(F)F)cc2)c(C#N)c2nc3cc(Cl)c(Cl)cc3n12 | 1.37 | 2.77 | 1700 | 3.13 | 1590 | 3.13 | 289 | 0.935 | 1.69 | 3.2 | 543 | 1.88 | 1510 | 3.1 | 1660 | 3.13 | 1670 | 3.04 |  | 
Cc1sc2c(c1C)C(c1ccc(Cl)cc1)=N[C@@H](CC(=O)NCCCN1CCN(C)CC1)c1nnc(C)n1-2 | 3.22 | > 100 | > 100000 | > 100 | > 34600 | > 100 | 16800 | > 100 | 19.6 | > 100 | 362 | > 69.9 | 198 | > 100 | 1330 | > 100 | 6360 | > 100 | 618 | > 100
C=CC(=O)Nc1cccc(Oc2nc(Nc3ccc(N4CCN(C)CC4)cc3OC)ncc2Cl)c1 | 1.46 | 3.33 | 1590 | 6.07 | 363 | 3.38 | 2590 | 10.7 | 3.46 | 11.2 | 1580 | 2.99 | 1940 | 4.12 | 1700 | 4.44 | 1890 | 3.92 | 1290 | 3.56
O=[N+]([O-])c1oc2ccc3ccccc3c2c1CCO |  | 7.29 |  | > 36.5 |  | 2.09 |  | 34.2 |  | 31.5 |  | 9.52 |  | 59.3 |  | 58.5 |  | 1.98 |  | 3.56
COc1ccc(Cn2cc3c(c2-c2cc(OC)c(OC)c(OC)c2)CCc2c(CO)noc2-3)cc1 | 0.439 | > 100 | 361 | 16 | 644 | > 76.9 | 315 | 27.1 | 0.341 | 17.9 | 615 | 16.6 | 629 | 19 | 312 | 12.9 | 334 | 11.9 | 596 | 32.1
CC(C)C(=O)c1c(C(F)(F)F)n([O-])c2ccccc2[n+]1=O | 2.46 | 6.79 | 1120 | 2.54 | 876 | 2.57 | 2310 | > 27.1 | 0.563 | 1.65 | 1850 |  | 1580 | 3.58 | 493 | 1.24 | 1630 | 3.03 | 1110 | 
Cc1ccccc1C(C(=O)NC1CCCCC1)N(C(=O)CNc1ncccc1F)c1cccc(F)c1 (centres undefined) | > 100 | > 100 | > 100000 | > 100 | > 100000 | > 100 | > 100000 | > 100 | > 100 | > 100 | > 100000 | > 100 | 25100 | > 100 | > 100000 | > 100 | > 100000 | > 100 | > 80000 | > 100
CC(C)Cc1ccc(C(C)C(=O)NCc2ccc(Cn3c(=O)sn(CCCI)c3=O)cc2)cc1 (centres undefined) | 1.39 | 3.12 | 861 | 2.12 | 1460 | 2.92 | 237 | 0.738 | 1.56 | 3.25 | 181 | 0.393 | 1130 | 2.42 | 269 | 0.791 | 1460 | 2.78 | 453 | 1.38
CCOC(=O)c1cc(NS(=O)(=O)c2ccc(C)cc2)cc(C(=O)OCC)c1 | 41.4 | > 100 | 34900 | > 100 | 31700 | > 100 | 39600 | > 100 | 55.9 | > 100 | 61400 | > 100 | 34900 | > 100 | 34500 | > 100 | 31000 | > 100 | 51700 | > 100
O=C1c2cc(F)ccc2-c2c1c1ccc([N+](=O)[O-])cc1c(=O)n2CCCBr | 25.7 | > 100 | 3380 | > 100 | > 100000 | > 100 | 56800 | > 100 | 20.9 | > 100 | 7620 | 38.2 | > 100000 | > 100 | 46800 | > 100 | 11700 | 40.3 | 17400 | > 100
Cn1c(-c2c(N)n(Cc3ccc(F)cc3)c3nc(C#N)c(C#N)nc23)nc2ccccc21 | 5.48 | > 50 | 3020 | 21.6 | 4160 | > 50 | 2050 | 13.6 | 2.19 | 11.2 | 739 | 2.18 | 5170 | 38.5 | 842 | 2.6 | 2970 | > 50 |  | 
C=C1C(=O)C2=CC1CCC(=O)C1(C)CCC(OC(C)=O)C(C)(C)C1CC2O (centres undefined) |  | 22.4 |  | 13.9 |  | 18.9 |  | 2.6 |  | 15.9 |  | > 22.5 |  | 18 |  | 15.8 |  | 6.09 |  | 14.1
Cc1ccsc1-c1ccc2c(c1)COC2(CCCN(C)C)c1ccc(F)cc1 (centres undefined) | 4.48 | 18.1 | 3170 | 10.8 | 4640 | 18.5 | 3090 | 10.9 | 3.13 | 10.9 | 1640 | 3.04 | 1840 | 6 | 2640 | 9.02 | 1780 | 3.2 | 1870 | 5.86
